Results on seven compounds are retold here after paper PMC10745968 (Molecules, 2023).

One series has as its system Bacillus subtilis. The class given is cell-based.
In a further series the test system is Staphylococcus aureus. Format: cell-based.
Another series deals with Pseudomonas aeruginosa. Format: cell-based.
The subject of the next series is Bacillus cereus. Format: cell-based.
Another series has as its system Escherichia coli. Format: cell-based.
A further series has as its system Salmonella typhi. Format: cell-based.
The test system of a further series is Aspergillus flavus. The class given is cell-based. Conditions: 5 days.
A further series concerns Aspergillus niger. The class given is cell-based. Conditions: 5 days.
The subject of the next series is brine shrimp nauplii. Conditions: in vivo.

Consider `CC[C@H]1OC(=O)[C@H](C)[C@@H](O[C@H]2C[C@@](C)(OC)[C@@H](O)[C@H](C)O2)[C@H](C)[C@@H](O[C@@H]2O[C@H](C)C[C@H](N(C)C)[C@H]2O)[C@](C)(O)C[C@@H](C)CN(C)[C@H](C)[C@@H](O)[C@]1(C)O` [Azithromycin, reference compound], for which the “Diameter of Inhibition Zone” value in the series with Bacillus subtilis is “** 18.5 ± 0.3 mm”; with Staphylococcus aureus, “** 17.75 ± 0.3 mm”; with Pseudomonas aeruginosa it was “** 18.5 ± 0.3 mm”; in the series on Bacillus cereus it was “** 17.22 ± 0.3 mm”; with Escherichia coli it was “** 17.25 ± 0.1 mm”; with Salmonella typhi, “** 18.0 ± 0.2 mm”.

For the compound `CCCCCCCC(=O)O[C@@H]1[C@H](OC(=O)CCCCCCC)[C@@H](OC)O[C@H](COC(=O)C=Cc2ccccc2)[C@H]1OC(=O)CCCCCCC` [Compound 4, Methyl 6-O-cinnamoyl-2,3,4-tri-O-octanoyl-α-D-mannopyranoside], the “% Inhibition of Fungal Mycelial Growth in mm (20 μg/μL)” value (shortened to “% Inhibition of Fungal Mycelial Growth”) in the series on Aspergillus flavus is recorded as “* 98.47 ± 1.0%”; in the series on Aspergillus niger, “* 96.22 ± 1.1%”. Moreover, the “Diameter of Inhibition Zone” value with Bacillus subtilis is 10.51 ± 0.6 mm; in the series with Pseudomonas aeruginosa it was 09.19 ± 0.6 mm; in the series with Escherichia coli, 11.53 ± 0.2 mm; with Salmonella typhi, 10.23 ± 0.5 mm. In addition, the “death rate (brine shrimp)” value in the series on brine shrimp nauplii is on record as 36.10-37.03%.

For the compound `CO[C@H]1O[C@H](COC(=O)C=Cc2ccccc2)[C@@H](OS(=O)(=O)c2ccccc2)[C@H](OS(=O)(=O)c2ccccc2)[C@@H]1OS(=O)(=O)c1ccccc1` [Compound 6, Methyl 6-O-cinnamoyl-2,3,4-tri-O-benzenesulfonyl-α-D-mannopyranoside], the “Diameter of Inhibition Zone” value turned out to be 10.13 ± 0.8 mm in the series with Bacillus subtilis, 8.50 ± 0.2 mm with Pseudomonas aeruginosa, 9.00 ± 0.3 mm in the series on Escherichia coli and 9.17 ± 0.1 mm in the series with Salmonella typhi. Moreover, the “death rate (brine shrimp)” value with brine shrimp nauplii is recorded as 36.10-37.03%.

For `CO[C@H]1O[C@H](COC(=O)/C=C/c2ccccc2)[C@@H](OS(=O)(=O)c2ccc(C)cc2)[C@H](OS(=O)(=O)c2ccc(C)cc2)[C@@H]1OS(=O)(=O)c1ccc(C)cc1` [Compound 5, Methyl 2,3,4-tri-O-p-toluenesulfonyl-6-O-cinnamoyl-α-D-mannopyranoside], the “% Inhibition of Fungal Mycelial Growth” value was “* 81.30 ± 1.0%” in the series with Aspergillus flavus and 57.62 ± 1.1% with Aspergillus niger. Besides, the “Diameter of Inhibition Zone” value in the series on Bacillus subtilis stood at 12.15 ± 0.7 mm; in the series on Pseudomonas aeruginosa, 12.36 ± 0.2 mm; in the series with Bacillus cereus it was 08.10 ± 0.3 mm; in the series on Escherichia coli, 9.00 ± 0.2 mm.

`CCCCCCC(=O)O[C@@H]1[C@H](OC(=O)CCCCCC)[C@@H](OC)O[C@H](COC(=O)C=Cc2ccccc2)[C@H]1OC(=O)CCCCCC` [Compound 3, Methyl 2,3,4-tri-O-heptanoyl-6-O-cinnamoyl-α-D-mannopyranoside]: in the series with Escherichia coli, the “Diameter of Inhibition Zone” value came to 10.25 ± 0.2 mm.

In the case of `CO[C@H]1O[C@H](COC(=O)C=Cc2ccccc2)[C@@H](O)[C@H](O)[C@@H]1O` [Compound 2, Methyl 6-O-cinnamoyl-α-D-mannopyranoside], the results for the “Diameter of Inhibition Zone” value in the series with Staphylococcus aureus, in the series on Bacillus cereus and in the series with Salmonella typhi were 11.75 ± 0.3 mm, 07.11 ± 0.5 mm and 12.41 ± 0.3 mm, respectively. In the series with brine shrimp nauplii, the “death rate (brine shrimp)” value was 27.07%.

As for `C[C@@H]1[C@H](O)[C@@H](C)/C=C/C=C/CC/C=C/C=C/C=C/C=C/C(O[C@H]2O[C@H](C)[C@@H](O)[C@H](N)[C@@H]2O)CC2O[C@](O)(CC(O)C(O)CCC(O)CC(O)CC(O)CC(=O)O[C@H]1C)CC(O)C2C(=O)O` (stereo partly shown) [Nystatin, nystatin, reference compound], the entries for the “% Inhibition of Fungal Mycelial Growth” value in the series on Aspergillus flavus and in the series with Aspergillus niger were “** 64.1 ± 1.0%” and “** 65.4 ± 1.0%”, respectively.
